Data: publication PMC5125695, “Antiviral Efficacy of Verdinexor In Vivo in Two Animal Models of Influenza A Virus Infection” (PLoS ONE, 2016)
“Also recorded” adds a separate entry of the source.

System: Influenza A/WSN/33
Format: cell-based

Which “Sensitivity of passaged virus to verdinexor” value does the source give for O=C(/C=C\n1cnc(-c2cc(C(F)(F)F)cc(C(F)(F)F)c2)n1)NNc1ccccn1 [verdinexor] here?
The value was “did not result in a reduction of drug sensitivity; also recorded: remained sensitive”.
